Tests used:
[1] = system: C3H Mammary adenocarcinoma 16/C; assay: Growth of subcutaneous transplants of C3H mammary adenocarcinoma 16/C in B6C3F1 female mice; assay type: in vivo; conditions: i.p., 98 mg/kg, qd (1,7,14,21)
Procedure: (§1) The amount of protein in the alkaloidal and viscotoxin fractions were also determined to be within the required fingerprint ranges. Anticancer activities of T4GEN were studied in animals bearing subcutaneous transplants of C3H Mammary adenocarcinoma 16/C. This tumor is maintained as a lung framed tumor in C3H female mice. In this example, tumors (1×10^6 cells) were transplanted (S.C.) in 18-20 g B6C3F1 hybrid female mice. On the following day, the tumor beating animals were randomized and separated into different treatment groups (10 mice per group). There were 15 animals in the control group who received only physiological saline during the treatment periods. The treatments (i.p.) were staged 48 hours after the transplants and given for a duration of 14 days (daily single injections).Animals were weighed on days 5, 9 and 14 to assess toxic effects. Tumors were measured on day 21 post transplants and the results are represented as tumor weights using formula [formula] (l=length of tumor, w=width of tumor expressed in mm).

[2] = Weight change of tumor bearing B6C3F1 mice (toxic effects); assay type: in vivo; conditions: i.p., 98 mg/kg, qd (1,7,14,21)
Procedure: as §1

AIDS patients = conditions: human, in vivo; cited from earlier work
reverse transcriptase = conditions: cited from earlier work

Compound	Tumor Weight Inhibition [1] [%]	Tumor Wts (day 21) ([1]; saline controls 0.27)	Tumor Free Animals (day 93) ([1]; saline controls 1/15)	Δ Wts (day 14) [2]	toxic side effects (AIDS patients)	inhibition of reverse transcriptase (reverse transcriptase)
O=c1[nH]cc(F)c(=O)[nH]1 [5FIuorouracil]	100	0.00	0/6	+1.77 g		
Cc1cn([C@H]2C[C@H](N=[N+]=[N-])[C@@H](CO)O2)c(=O)[nH]c1=O [AZT, azidothymidine]					serious toxic side effects including immunosuppression	
Nc1ccn([C@H]2CC[C@@H](CO)O2)c(=O)n1 [ddC, 2',3'-dideoxycytidine]					serious toxic side effects including immunosuppression	inhibit reverse transcriptase
OC[C@@H]1CC[C@H](n2cnc3c(O)ncnc32)O1 [ddI, 2',3'-dideoxyinosine]					serious toxic side effects including immunosuppression	inhibit reverse transcriptase
